Tests used:
[1] = biological target: CDK3/cyclin E (Homo sapiens) (UniProt P24864+O96020+Q00526); experiment: Selectivity interaction (Millipore kinase profiler) EUB0000124b CDK3; assay type: protein-complex assay; details: at 10 µM
[2] = biological target: Tyrosine-protein kinase JAK2 (Homo sapiens, UniProt O60674); experiment: Selectivity interaction (KinomeScan (DiscoverX)) EUB0000666a JAK2; details: at 10 µM
[3] = biological target: Receptor tyrosine-protein kinase erbB-2 (Homo sapiens, UniProt P04626); experiment: Selectivity interaction (KinomeScan (DiscoverX)) EUB0000666a ERBB2; details: at 10 µM
[4] = biological target: Serine/threonine-protein kinase SBK1 (Homo sapiens) (UniProt Q52WX2); experiment: Selectivity interaction (KinomeScan (DiscoverX)) EUB0000229b SBK1; details: at 10 µM
[5] = biological target: Mitogen-activated protein kinase kinase kinase 11 (Homo sapiens) (UniProt Q16584); experiment: Selectivity interaction (KinomeScan (DiscoverX)) EUB0001079a MAP3K11; details: at 1 µM
[6] = biological target: Muscarinic acetylcholine receptor M4 (Homo sapiens) (UniProt P08173); experiment: Selectivity interaction (GPCR panel (PDSP screen)) EUB0001079a CHRM4; details: at 10 µM
[7] = tested on: Fibroblast growth factor receptor 3 (Homo sapiens), P22607 [G697C]; experiment: (§1) Selectivity interaction (KinomeScan (DiscoverX)) EUB0001079a FGFR3; details: at 1 µM
[8] = biological target: Fibroblast growth factor receptor 3 (Homo sapiens, UniProt P22607); experiment: as §1; details: at 1 µM
[9] = biological target: Ribosomal protein S6 kinase alpha-6 (Homo sapiens, UniProt Q9UK32); experiment: Selectivity interaction (KinomeScan (DiscoverX)) EUB0001079a RPS6KA6; details: at 1 µM
[10] = biological target: Cyclin-dependent kinase 7 (Homo sapiens, UniProt P50613); experiment: Selectivity interaction (Kinase panel (KiNativ target engagement assay in Jurkat cells)) EUB0001635a CDK7; assay type: cell-based; details: Selectivity number of off-targets 0.0, Selectivity number of targets 233.0, Source Knowledge https://www.sciencedirect.com/science/article/pii/S2451945619300674?via%3Dihub, at 1 µM
[11] = biological target: Serine/threonine-protein kinase SIK3 (Homo sapiens) (UniProt Q9Y2K2); experiment: Selectivity interaction (ActivX KiNativ screen (kinase selectivity in THP-1 cell lysates)) EUB0000639a SIK3; assay type: subcellular; details: lysate
[12] = biological target: Serine/threonine-protein kinase 26 (Homo sapiens, UniProt Q9P289); experiment: Selectivity interaction (ActivX KiNativ screen (kinase selectivity in THP-1 cell lysates)) EUB0000639a STK26; assay type: subcellular; details: lysate, at 1 µM
[13] = biological target: Tyrosine-protein kinase JAK1 (Homo sapiens, UniProt P23458); experiment: Selectivity interaction (ActivX KiNativ screen (kinase selectivity in THP-1 cell lysates)) EUB0000639a JAK1; assay type: subcellular; details: lysate, at 0.04 µM
[14] = biological target: Interleukin-1 receptor-associated kinase 1 (Homo sapiens) (UniProt P51617); experiment: Selectivity interaction (ActivX KiNativ screen (kinase selectivity in THP-1 cell lysates)) EUB0000639a IRAK1; assay type: subcellular; details: lysate
[15] = biological target: Dual specificity protein kinase CLK1 (Homo sapiens, UniProt P49759); experiment: Selectivity interaction (Kinase panel (Invitrogen)) EUB0000639a CLK1; details: at 200 nM
[16] = biological target: T1, Serine/threonine-protein kinase TBK1 (Homo sapiens) (UniProt Q9UHD2); experiment: Selectivity interaction (KinomeScan (DiscoverX)) EUB0000045b TBK1
T1 sequence (whole entry): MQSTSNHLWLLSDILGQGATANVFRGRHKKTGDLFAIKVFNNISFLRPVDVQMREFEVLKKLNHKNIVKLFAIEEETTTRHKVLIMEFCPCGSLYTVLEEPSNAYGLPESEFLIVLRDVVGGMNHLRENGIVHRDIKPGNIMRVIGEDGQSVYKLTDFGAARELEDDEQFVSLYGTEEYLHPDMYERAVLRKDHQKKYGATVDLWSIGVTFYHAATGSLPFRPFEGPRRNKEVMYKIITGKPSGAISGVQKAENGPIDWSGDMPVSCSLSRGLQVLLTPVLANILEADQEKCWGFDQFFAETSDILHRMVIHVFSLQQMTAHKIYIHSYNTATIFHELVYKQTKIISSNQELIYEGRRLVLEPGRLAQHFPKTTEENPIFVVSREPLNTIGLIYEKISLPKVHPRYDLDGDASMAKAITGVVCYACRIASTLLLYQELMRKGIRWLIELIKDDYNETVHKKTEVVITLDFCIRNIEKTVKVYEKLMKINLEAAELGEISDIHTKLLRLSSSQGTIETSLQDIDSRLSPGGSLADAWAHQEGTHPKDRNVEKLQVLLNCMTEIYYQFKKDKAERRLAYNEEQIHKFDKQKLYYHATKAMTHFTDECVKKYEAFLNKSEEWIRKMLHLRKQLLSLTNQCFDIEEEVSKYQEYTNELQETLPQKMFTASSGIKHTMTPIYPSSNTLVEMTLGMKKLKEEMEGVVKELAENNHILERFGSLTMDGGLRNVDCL

[17] = biological target: [Pyruvate dehydrogenase (acetyl-transferring)] kinase isozyme 1, mitochondrial (Homo sapiens, UniProt Q15118)
[18] = biological target: Glycogen synthase kinase-3 alpha (Homo sapiens, UniProt P49840); experiment: Selectivity interaction (KinomeScan (DiscoverX)) EUB0001619a GSK3A; details: at 1 µM
[19] = biological target: T2, Serine/threonine-protein kinase DCLK3 (Homo sapiens) (UniProt Q9C098); experiment: Selectivity interaction (KinomeScan (DiscoverX)) EUB0000607a DCLK3; details: at 10 µM
T2 sequence (whole entry): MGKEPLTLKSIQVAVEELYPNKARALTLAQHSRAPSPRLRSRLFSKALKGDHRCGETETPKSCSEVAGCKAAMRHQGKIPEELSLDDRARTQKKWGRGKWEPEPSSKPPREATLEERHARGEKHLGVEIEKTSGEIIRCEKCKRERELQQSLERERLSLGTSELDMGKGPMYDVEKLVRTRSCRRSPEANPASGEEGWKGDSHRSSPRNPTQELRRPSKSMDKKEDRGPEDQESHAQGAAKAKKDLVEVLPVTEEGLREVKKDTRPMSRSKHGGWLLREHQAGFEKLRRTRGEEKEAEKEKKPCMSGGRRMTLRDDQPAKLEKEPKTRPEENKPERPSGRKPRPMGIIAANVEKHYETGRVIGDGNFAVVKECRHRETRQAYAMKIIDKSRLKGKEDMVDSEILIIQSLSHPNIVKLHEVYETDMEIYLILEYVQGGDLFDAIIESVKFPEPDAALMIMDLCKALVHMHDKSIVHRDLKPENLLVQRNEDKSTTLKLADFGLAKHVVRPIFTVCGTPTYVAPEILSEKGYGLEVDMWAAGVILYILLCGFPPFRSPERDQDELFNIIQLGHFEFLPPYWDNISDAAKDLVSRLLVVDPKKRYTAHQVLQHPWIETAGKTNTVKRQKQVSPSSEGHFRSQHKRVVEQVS

Chain of Interleukin-1 receptor-associated kinase 1 (Homo sapiens) (P51617 whole entry, looked up): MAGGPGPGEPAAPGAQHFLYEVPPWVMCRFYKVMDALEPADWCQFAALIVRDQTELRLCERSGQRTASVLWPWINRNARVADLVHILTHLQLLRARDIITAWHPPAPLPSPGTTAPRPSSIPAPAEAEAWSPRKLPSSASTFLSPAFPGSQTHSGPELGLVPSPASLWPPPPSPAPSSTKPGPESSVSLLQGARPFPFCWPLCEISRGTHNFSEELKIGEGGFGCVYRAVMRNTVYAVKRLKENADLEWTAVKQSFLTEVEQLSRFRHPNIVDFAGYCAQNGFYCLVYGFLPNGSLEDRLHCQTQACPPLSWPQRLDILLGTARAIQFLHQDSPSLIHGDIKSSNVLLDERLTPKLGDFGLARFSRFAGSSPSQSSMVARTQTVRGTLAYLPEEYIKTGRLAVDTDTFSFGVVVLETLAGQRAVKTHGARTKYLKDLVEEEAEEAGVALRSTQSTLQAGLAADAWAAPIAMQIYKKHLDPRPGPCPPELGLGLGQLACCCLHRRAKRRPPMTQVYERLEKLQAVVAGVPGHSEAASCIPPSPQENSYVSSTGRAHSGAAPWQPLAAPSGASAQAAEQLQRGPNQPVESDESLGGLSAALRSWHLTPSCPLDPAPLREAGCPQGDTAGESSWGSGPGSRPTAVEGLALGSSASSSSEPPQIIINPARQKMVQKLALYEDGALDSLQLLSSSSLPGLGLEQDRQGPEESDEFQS
Chain of Serine/threonine-protein kinase SIK3 (Homo sapiens) (Q9Y2K2 whole entry, looked up): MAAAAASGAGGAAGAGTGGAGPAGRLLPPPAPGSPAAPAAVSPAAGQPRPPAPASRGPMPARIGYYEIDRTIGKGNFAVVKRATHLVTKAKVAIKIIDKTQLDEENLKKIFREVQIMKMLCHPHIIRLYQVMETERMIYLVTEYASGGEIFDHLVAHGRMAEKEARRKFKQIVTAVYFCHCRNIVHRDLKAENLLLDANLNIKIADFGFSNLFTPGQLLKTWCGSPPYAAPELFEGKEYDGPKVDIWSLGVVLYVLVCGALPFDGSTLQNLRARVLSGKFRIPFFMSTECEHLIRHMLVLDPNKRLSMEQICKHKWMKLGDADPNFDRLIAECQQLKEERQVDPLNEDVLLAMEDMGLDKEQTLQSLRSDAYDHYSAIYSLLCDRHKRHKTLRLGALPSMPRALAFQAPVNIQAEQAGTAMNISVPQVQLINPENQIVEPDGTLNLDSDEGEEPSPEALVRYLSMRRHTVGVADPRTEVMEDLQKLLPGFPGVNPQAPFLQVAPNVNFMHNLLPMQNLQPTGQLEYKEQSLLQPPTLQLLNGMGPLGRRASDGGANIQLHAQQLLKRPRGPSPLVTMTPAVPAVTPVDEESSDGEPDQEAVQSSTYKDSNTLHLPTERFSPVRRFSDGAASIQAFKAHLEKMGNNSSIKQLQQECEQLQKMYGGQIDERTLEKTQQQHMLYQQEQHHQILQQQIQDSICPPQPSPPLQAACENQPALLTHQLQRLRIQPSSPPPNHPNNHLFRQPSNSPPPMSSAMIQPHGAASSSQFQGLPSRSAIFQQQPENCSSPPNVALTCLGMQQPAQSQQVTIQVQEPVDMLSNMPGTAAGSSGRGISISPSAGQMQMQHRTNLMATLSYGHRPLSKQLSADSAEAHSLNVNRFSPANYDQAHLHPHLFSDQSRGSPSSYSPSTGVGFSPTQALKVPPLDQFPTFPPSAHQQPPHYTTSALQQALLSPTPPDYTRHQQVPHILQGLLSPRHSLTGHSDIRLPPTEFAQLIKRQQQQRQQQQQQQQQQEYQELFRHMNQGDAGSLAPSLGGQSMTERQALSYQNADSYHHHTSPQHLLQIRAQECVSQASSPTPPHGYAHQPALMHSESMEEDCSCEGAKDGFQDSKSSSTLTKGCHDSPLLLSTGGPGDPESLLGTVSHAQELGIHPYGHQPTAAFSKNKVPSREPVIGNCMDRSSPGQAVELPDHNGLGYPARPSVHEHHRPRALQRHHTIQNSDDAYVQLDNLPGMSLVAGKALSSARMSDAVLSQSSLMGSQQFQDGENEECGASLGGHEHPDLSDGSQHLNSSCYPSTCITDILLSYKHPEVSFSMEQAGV
Chain of Mitogen-activated protein kinase kinase kinase 11 (Homo sapiens) (Q16584 whole entry, looked up): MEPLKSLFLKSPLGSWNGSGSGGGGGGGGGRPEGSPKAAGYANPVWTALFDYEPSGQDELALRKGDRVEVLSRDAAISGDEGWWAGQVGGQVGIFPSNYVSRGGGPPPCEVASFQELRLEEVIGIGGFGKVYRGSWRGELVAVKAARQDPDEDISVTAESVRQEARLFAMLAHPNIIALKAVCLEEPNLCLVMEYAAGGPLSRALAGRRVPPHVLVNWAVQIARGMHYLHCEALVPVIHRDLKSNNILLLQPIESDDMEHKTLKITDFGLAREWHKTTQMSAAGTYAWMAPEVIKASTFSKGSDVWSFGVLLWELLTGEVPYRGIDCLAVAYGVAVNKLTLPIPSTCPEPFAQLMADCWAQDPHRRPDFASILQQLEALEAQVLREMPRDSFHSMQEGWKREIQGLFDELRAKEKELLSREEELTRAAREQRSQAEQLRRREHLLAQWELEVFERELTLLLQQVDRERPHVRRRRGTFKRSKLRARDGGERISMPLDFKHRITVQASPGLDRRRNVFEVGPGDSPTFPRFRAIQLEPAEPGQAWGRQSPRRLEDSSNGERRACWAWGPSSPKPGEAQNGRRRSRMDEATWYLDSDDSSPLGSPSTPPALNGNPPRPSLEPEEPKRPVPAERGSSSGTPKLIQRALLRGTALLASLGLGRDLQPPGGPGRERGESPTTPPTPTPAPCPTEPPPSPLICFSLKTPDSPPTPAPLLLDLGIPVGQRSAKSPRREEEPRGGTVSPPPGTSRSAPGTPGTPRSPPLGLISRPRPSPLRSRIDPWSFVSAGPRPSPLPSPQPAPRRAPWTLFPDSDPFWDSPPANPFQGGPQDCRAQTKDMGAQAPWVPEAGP
Chain of Dual specificity protein kinase CLK1 (P49759 whole entry, looked up): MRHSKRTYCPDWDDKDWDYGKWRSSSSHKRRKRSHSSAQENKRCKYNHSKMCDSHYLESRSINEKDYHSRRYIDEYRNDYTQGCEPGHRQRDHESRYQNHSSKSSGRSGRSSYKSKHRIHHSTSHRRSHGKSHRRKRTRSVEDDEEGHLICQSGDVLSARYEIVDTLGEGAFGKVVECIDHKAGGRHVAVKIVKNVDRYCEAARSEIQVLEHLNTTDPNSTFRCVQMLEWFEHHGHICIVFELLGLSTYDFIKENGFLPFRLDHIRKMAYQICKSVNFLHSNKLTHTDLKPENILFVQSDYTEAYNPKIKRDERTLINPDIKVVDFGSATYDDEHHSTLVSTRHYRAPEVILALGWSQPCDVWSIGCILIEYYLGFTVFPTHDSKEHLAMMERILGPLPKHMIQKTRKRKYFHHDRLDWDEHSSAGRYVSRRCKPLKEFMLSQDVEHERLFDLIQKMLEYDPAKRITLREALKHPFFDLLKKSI
Chain of Serine/threonine-protein kinase 26 (Q9P289 2-416 limits assumed): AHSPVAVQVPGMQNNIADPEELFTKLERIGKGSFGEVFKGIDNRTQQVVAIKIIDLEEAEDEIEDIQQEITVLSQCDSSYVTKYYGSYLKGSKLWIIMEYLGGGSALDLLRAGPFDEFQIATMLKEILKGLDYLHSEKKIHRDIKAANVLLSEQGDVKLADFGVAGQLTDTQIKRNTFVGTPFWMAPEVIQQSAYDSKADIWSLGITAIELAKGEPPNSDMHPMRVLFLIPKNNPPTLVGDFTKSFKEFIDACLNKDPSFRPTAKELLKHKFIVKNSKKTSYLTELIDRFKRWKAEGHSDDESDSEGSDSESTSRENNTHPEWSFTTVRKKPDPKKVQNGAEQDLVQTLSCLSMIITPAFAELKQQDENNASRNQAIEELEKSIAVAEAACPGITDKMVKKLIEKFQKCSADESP
Chain of Cyclin-dependent kinase 7 (P50613 whole entry): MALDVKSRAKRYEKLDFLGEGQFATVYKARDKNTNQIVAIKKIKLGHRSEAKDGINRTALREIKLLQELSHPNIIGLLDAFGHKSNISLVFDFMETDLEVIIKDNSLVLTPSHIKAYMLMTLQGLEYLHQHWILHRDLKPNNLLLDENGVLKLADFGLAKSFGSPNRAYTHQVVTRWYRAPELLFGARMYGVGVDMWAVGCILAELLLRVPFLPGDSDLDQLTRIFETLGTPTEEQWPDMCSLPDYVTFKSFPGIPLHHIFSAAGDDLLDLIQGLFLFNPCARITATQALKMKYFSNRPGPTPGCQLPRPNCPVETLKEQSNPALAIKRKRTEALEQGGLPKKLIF
Chain of Glycogen synthase kinase-3 alpha (P49840 2-483 limits assumed): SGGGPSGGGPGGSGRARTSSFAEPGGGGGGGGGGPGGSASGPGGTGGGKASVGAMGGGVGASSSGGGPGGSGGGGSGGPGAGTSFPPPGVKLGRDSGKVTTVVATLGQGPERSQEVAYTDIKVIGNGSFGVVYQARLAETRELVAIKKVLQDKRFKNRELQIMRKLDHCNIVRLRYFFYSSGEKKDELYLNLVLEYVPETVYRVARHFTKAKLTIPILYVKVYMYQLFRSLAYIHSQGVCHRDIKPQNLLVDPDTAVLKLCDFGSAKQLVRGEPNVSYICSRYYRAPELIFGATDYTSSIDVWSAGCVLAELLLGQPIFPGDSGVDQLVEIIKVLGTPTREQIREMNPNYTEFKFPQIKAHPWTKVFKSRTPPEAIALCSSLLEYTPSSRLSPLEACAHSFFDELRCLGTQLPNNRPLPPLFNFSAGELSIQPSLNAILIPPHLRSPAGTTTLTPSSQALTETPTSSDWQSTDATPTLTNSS
Chain of [Pyruvate dehydrogenase (acetyl-transferring)] kinase isozyme 1, mitochondrial (Q15118 whole entry): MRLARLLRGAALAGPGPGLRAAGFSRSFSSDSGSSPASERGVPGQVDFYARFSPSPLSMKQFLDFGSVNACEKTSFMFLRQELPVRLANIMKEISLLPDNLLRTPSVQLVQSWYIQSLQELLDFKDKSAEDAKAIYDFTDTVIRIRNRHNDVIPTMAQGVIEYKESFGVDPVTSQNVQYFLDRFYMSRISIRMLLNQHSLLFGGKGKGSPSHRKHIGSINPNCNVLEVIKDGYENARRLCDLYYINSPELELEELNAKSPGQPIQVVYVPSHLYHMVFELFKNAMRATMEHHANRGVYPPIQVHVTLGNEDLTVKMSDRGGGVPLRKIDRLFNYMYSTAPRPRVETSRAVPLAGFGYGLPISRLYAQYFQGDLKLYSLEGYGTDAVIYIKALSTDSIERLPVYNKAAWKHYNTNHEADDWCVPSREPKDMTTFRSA

## CC(=O)Nc1cccc(-n2c(=O)n(C3CC3)c(=O)c3c(Nc4ccc(I)cc4F)n(C)c(=O)c(C)c32)c1
[1]
  % of control: 101%

## O=C(NOC[C@H](O)CO)c1ccc(F)c(F)c1Nc1ccc(I)cc1F
[2]
  % of control: 100%
[3]
  % of control: 100%

## COc1cc(N(C)c2ccnc3ccc(C(F)(F)F)cc23)cc(OC)c1OC
[4]
  % binding: 92%

## Nc1cnc(N2CCc3cc(S(=O)(=O)Nc4c(F)cc(Cl)cc4F)cc(N4CCCC4=O)c32)nc1 [TP-020n]
[5]
  % of control: 100%
[6]
  % of inhibition: 9.99%
[7]
  % of control: 89%
[8]
  % of control: 100%
[9]
  % of control: 86%

## C=CC(=O)Nc1ccc(C(=O)Nc2[nH]nc3c2CN(C(=O)N[C@H](CN(C)C)c2ccccc2)C3(C)C)cc1
[10]
  % of engagement: 95.5%

## CC[C@@H]1[C@H](F)C(=O)N[C@@H]1COc1nccc2cc(C(N)=O)c(OC)cc12 [ZIMLOVISERTIB]
[11]; at 0.01 µM
  % of inhibition: 5.4%
[11]; at 0.04 µM
  % of inhibition: 3.4%
[11]; at 0.2 µM
  % of inhibition: 15.7%
[11]; at 1 µM
  % of inhibition: -1.4%
[11]; at 5 µM
  % of inhibition: -7.8%
[12]
  % of inhibition: -9.2%
[13]
  % of inhibition: 14.8%
[14]; at 0.01 µM
  % of inhibition: 2.3%
[14]; at 0.04 µM
  % of inhibition: 8.5%
[14]; at 0.2 µM
  % of inhibition: 2.2%
[14]; at 1 µM
  % of inhibition: 19.8%
[14]; at 5 µM
  % of inhibition: 60.7%
[15]
  % of inhibition: 34.5%

## C=CC(=O)Nc1cc(-n2c(=O)ccc3cnc4ccc(-c5ccc(NS(C)(=O)=O)cc5)cc4c32)ccc1C
[16]; at 1 µM
  % of control: 100%
[16]; at 10 µM
  % of control: 77%

## CCc1cccc(CC)c1NC(=O)c1nn(C)c2c1CCc1cnc(Nc3ccc(C(=O)NC4CCN(C)CC4)cc3OC(F)(F)F)nc1-2
[17]
  IC50: > 10 µM

## N#Cc1cccc(-c2c[nH]c3ncnc(N4CCOCC4)c23)c1
[18]
  % of control: 100%

## CNC(=O)Nc1ccc(-c2nc(N3CC4CCC(C3)O4)c3cnn(C4CCC5(CC4)OCCO5)c3n2)cc1
[19]
  % of control: 100%

— ChEMBL document CHEMBL5465560, “Selectivity Literature for EUbOPEN Chemogenomic Library” (2024)
